Legend:
SARS-CoV-2 PLpro = SARS-CoV-2 PLpro (Severe acute respiratory syndrome coronavirus 2, UniProt P0DTD1); test: biochemical; details: 200 nM PLpro, 10 μM FRET substrate, 30 min preincubation at 30° C.
Description: FRET-Based PL^pro Enzymatic Assay
The SARS-CoV-2 PL^pro enzymatic assays were carried out as follows: The assay was assembled in 96-well plates with 100 μl of 200 nM PL^Pro protein in PL^Pro reaction buffer [50 mM Hepes (pH 7.5), 0.01% Triton X-100, and 5 mM DTT]. Then, 1 μl of testing compound at various concentrations was added to each well and incubated at 30° C. for 30 minutes. The enzymatic reaction was initiated by adding 1 μl of 1 mM FRET substrate (the final substrate concentration is 10 μM). The reaction was monitored in a Cytation 5 image reader with filters for excitation at 360/40 nm and emission at 460/40 nm at 30° C. for 1 hour. The initial velocity of the enzymatic reaction with and without testing compounds was calculated by linear regression for the first 15 minutes of the kinetic progress curve. The ICso values were calculated by plotting the initial velocity against various concentrations of testing compounds with a dose-response function in Prism 8 software.

[1] = Cytotoxicity assay in Vero E6 cells (neutral red uptake); format: cell-based; details: African green monkey, 2 days at 37° C.
Description: (§1) Cytotoxicity Assay in Vero E6 Cells
(§2) Briefly, 80,000 cells/ml of the tested cell lines were dispensed into 96-well cell culture plates at 100 μl per well. Twenty-four hours later, the growth medium was removed and washed with 150 μl of PBS buffer. Two hundred microliters of fresh serum-free medium containing serial diluted compounds was added to each well. After incubating for 2 days at 37° C., the medium was removed and replaced with 100 μl of DMEM medium containing neutral red (40 μg/ml) and incubated for 2 to 4 hours at 37° C. The amount of neutral red taken up was determined by measuring the absorbance at 540 nm using a Multiskan FC Microplate Photometer (Thermo Fisher Scientific). The CC50 values were calculated from best-fit dose-response curves with variable slope in Prism 8.

[2] = system: SARS-CoV-2 viral replication; details: cited from earlier work
Vero E6 cells = test: Cytotoxicity assay in Vero E6 cells (neutral red uptake); format: cell-based; details: 2 days at 37° C.
Description: as §1, §2

Row | Molecule | IC50 (SARS-CoV-2 PLpro) | CC50 at 2 days [1] | EC50 [2] | CC50 (Vero E6 cells)
1 | CCn1ccc(-c2cc(-c3cnn(C)c3)cc([C@@H](C)NC(=O)c3ccccc3CCC(=O)NNC(=O)/C=C/C(=O)NC34CC(C3)C4)c2)n1 [Example 20, (R,E)-2-(3-(2-(4-(Bicyclo[1.1.1]pentan-1-ylamino)-4-oxobut-2-enoyl)hydrazineyl)-3-oxopropyl)-N-(1-(3-(1-ethyl-1H-pyrazol-3-yl)-5-(1-methyl-1 H-pyrazol-4-yl)phenyl)ethyl)benzamide] | < 1 µM | > 250 µM | – | –
2 | CCn1ccc(-c2cc(-c3cnn(C)c3)cc([C@@H](C)NC(=O)c3ccccc3CCC(=O)NNC(=O)/C=C/C(=O)N3CC(F)C3)c2)n1 [Example 21, (R,E)-N-(1-(3-(1-ethyl-1H-pyrazol-3-yl)-5-(1-methyl-1H-pyrazol-4-yl)phenyl)ethyl)-2-(3-(2-(4-(3-fluoroazetidin-1-yl)-4-oxobut-2-enoyl)hydrazineyl)-3-oxopropyl)benzamide] | < 1 µM | > 500 µM | – | –
3 | CCn1ccc(-c2cc(-c3cnn(C)c3)cc([C@@H](C)NC(=O)c3ccccc3CCC(=O)NNC(=O)/C=C/C(=O)N3CCC3)c2)n1 [Example 22, (R,E)-2-(3-(2-(4-(azetidin-1-yl)-4-oxobut-2-enoyl) hydrazineyl)-3-oxopropyl)-N-(1-(3-(1-ethyl-1H-pyrazol-3-yl)-5-(1-methyl-1H-pyrazol-4-yl)phenyl)ethyl)benzamide] | < 1 µM | > 250 µM | – | –
4 | CCOC(=O)/C=C/C(=O)NCC(=O)NCc1ccccc1C(=O)NC1(c2cc(-c3cnn(C)c3)cc(-c3ccn(CC)n3)c2)CC1 [Example 23, ethyl (E)-4-((2-((2-((1-(3-(1-ethyl-1H-pyrazol-3-yl)-5-(1-methyl-1H-pyrazol-4-yl)phenyl)cyclopropyl)carbamoyl)benzyl)amino)-2-oxoethyl)amino)-4-oxobut-2-enoate] | 1 to 5 µM | > 500 µM | – | –
5 | CCn1ccc(-c2cc(-c3cnn(C)c3)cc(C3(NC(=O)c4ccccc4CNC(=O)CNC(=O)/C=C/C(=O)N4CC(F)(F)C4)CC3)c2)n1 [Example 24, (E)-2-((2-(4-(3,3-difluoroazetidin-1-yl)-4-oxobut-2-enamido)-acetamido)methyl)-N-(1-(3-(1-ethyl-1H-pyrazol-3-yl)-5-(1-methyl-1H-pyrazol-4-yl)phenyl)cyclopropyl)benzamide] | 1 to 5 µM | > 500 µM | – | –
6 | CCn1ccc(-c2cc(-c3cnn(C)c3)cc([C@@H](C)NC(=O)c3ccccc3CNC(=O)CNC(=O)/C=C/C(=O)N3CC(F)(F)C3)c2)n1 [Example 25, (R,E)-2-((2-(4-(3,3-difluoroazetidin-1-yl)-4-oxobut-2-enamido)acetamido)methyl)-N-(1-(3-(1-ethyl-1H-pyrazol-3-yl)-5-(1-methyl-1H-pyrazol-4-yl)phenyl)ethyl)benzamide] | < 1 µM | > 500 µM | – | –
7 | CCn1ccc(-c2cc(-c3cnn(C)c3)cc([C@@H](C)NC(=O)c3ccccc3CCC(=O)NNC(=O)C34CC(C3)C4)c2)n1 [Example 27, (R)-2-(3-(2-(bicyclo[1.1.1]pentane-1-carbonyl)hydrazineyl)-3-oxopropyl)-N-(1-(3-(1-ethyl-1H-pyrazol-3-yl)-5-(1-methyl-1H-pyrazol-4-yl)phenyl)ethyl)benzamide] | > 5 µM | > 250 µM | – | –
8 | CCn1ccc(-c2cc(-c3cnn(C)c3)cc([C@@H](C)NC(=O)c3ccccc3CCC(=O)NCC(=O)CF)c2)n1 [Example 28, (R)-N-(1-(3-(1-ethyl-1H-pyrazol-3-yl)-5-(1-methyl-1H-pyrazol-4-yl)phenyl)ethyl)-2-(3-((3-fluoro-2-oxopropyl)amino)-3-oxopropyl)benzamide] | > 5 µM | > 250 µM | – | –
9 | C=CC(=O)NCC(=O)NCc1ccccc1C(=O)N[C@H](C)c1cc(-c2cnn(C)c2)cc(-c2ccn(C)n2)c1 [Example 29, (R)-2-((2-acrylamidoacetamido)methyl)-N-(1-(3-(1-methyl-1H-pyrazol-3-yl)-5-(1-methyl-1H-pyrazol-4-yl)phenyl)ethyl)benzamide] | > 5 µM | > 500 µM | – | –
10 | C=CS(=O)(=O)NCC(=O)NCc1ccccc1C(=O)N[C@H](C)c1cc(-c2cnn(C)c2)cc(-c2ccn(C)n2)c1 [Example 30, (R)-N-(1-(3-(1-methyl-1H-pyrazol-3-yl)-5-(1-methyl-1H-pyrazol-4-yl)phenyl)ethyl)-2-((2-(vinylsulfonamido)acetamido)methyl)benzamide] | < 1 µM | > 250 µM | – | –
11 | C[C@@H](NC(=O)c1ccccc1CNC(=O)CNC(=O)CC#N)c1cc(-c2cnn(C)c2)cc(-c2ccn(C)n2)c1 [Example 31, (R)-2-((2-(2-cyanoacetamido)acetamido)methyl)-N-(1-(3-(1-methyl-1H-pyrazol-3-yl)-5-(1-methyl-1H-pyrazol-4-yl)phenyl)ethyl)benzamide] | > 5 µM | > 500 µM | – | –
12 | Cc1ccc(N)cc1C(=O)N[C@H](C)c1cccc2ccccc12 [GRL0617] | – | – | ~20 µM | –
13 | (R)-2-(3-((2-Cyanoethyl)amino)-3-oxopropyl)-N-(1-(3-(1-ethyl-1H-pyrazol-3-yl)-5-(1-methyl-1H-pyrazol-4-yl)phenyl)ethyl)benzamide [Example 1] | > 5 µM | – | – | 146 µM

From patent publication US20250326742A1, “THERAPEUTIC COMPOUNDS” (RUTGERS, THE STATE UNIVERSITY OF NEW JERSEY, priority 2024, published 2025)
